These results are taken from US6344342B1, “Human G protein coupled lysophosphatidic acid receptor” (SmithKline Beecham Corporation, priority 1997, dated 2002).

The subject of this experiment is HOFNH30. Description: Ca2+-mobilization FLIPR assay in RBL-2H3 cells stably expressing HOFNH30. It counts as cell-based, human. The conditions noted are these: several clones of RBL-2H3 cells stably expressing HOFNH30, Fluo 3AM-loaded cells. An excerpt:
One preferred screening method involves co-transfecting HEK-293 cells with a mammalian expression plasmid encoding a G-protein coupled receptor (GPCR), such as HOFNH30, along with a mixture comprised of mammalian expression plasmids cDNAs encoding Gα15 (Wilkie T. M. et al Proc Natl Acad Sci USA 1991 88:10049-10053), Gα16 (Amatruda T. T. et al Proc Natl Acad Sci USA 1991 8:5587-5591, and three chimeric G-proteins refered to as Gqi5, Gqs5, and Gqo5 (Conklin B R et al Nature 1993 363:274-276, Conklin B. R. et al Mol Pharmacol 1996 50:885-890). Following a 24 h incubation the transfected HEK-293 cells are plated into poly-D-lysine coated 96 well black/clear plates (Becton Dickinson, Bedford, Mass.). The cells are assayed on FLIPR (Fluorescent Imaging Plate Reader, Molecular Devices, Sunnyvale, Calif.) for a calcium mobilization response following addition of test ligands. […]
A microtitre plate based Ca2^+-miobilization FLIPR assay (Fluorescent Imaging Plate Reader, Molecular Devices, Sunnyvale, Calif.) was used for the functional identification of the ligand activating RBL-2H3 cells stably expressing HOFNH30. […] After initiation of the assay, fluorescence was read every 1s for 1 min and then every 3 s for the following 1 min.

Molecules are shown by their SMILES.

As to `CCCCCCCC/C=C\CCCCCCCC(=O)OC[C@@H](O)COP(=O)(O)O` [LPA, 1-Oleoyl-sn-glycero-3-phosphate], the calcium mobilization response entry was “dose dependent calcium mobilization response”.
